Results: patent publication US20090227619A1, “Harmine derivatives, intermediates used in their preparations, preparation processes and use therefo” (priority 2003, published 2009)
Where “and” joins values, the source holds several entries; their conditions need not be identical. Identical values can stand only once. Like-named read-outs stand apart in the source and are kept apart here.

How the values were obtained:
Bel-7402 = assay: In vitro cytotoxicity, IC50 by MTT method, Bel-7402; format: cell-based
Protocol: (§1) Culture medium powder RPMI1640 was dissolved in a proper amount of tri-distilled water according to the instruction of the product. […] It was the basic culture solution. The complete culture solution was added with FBS having a final concentration of 10%, 100 U/ml penicillin and 100 µg/ml streptomycin. The solution was fully stirred by a magnetic blender, and the pH of the solution was adjusted to 6.8-7.0. The volume was kept constant. After being filtered and disinfected, the solution was kept into several containers which were sealed and stored at 4° C.
(§2) The cells were placed in a culture dish followed by the addition of complete culture liquid RPMI1640 and then cultured in a incubator comprising 5% CO2 at 37° C. In the exponential growth phase, the cells grew vigorously. If the culture liquid became yellow, the liquid should be replaced instantly.
(§3) The cells, at a concentration of 10^5/ml, were inoculated at a 96-pore culture plate. In each pore, 100 μl cells were inoculated. The cells were placed in a CO2 incubator until the cells were in the logarithmic growth phase. The samples to be tested were added according to the preset concentration gradient. For each gradient, the test was conducted at least three times. An equivalent amount of solvent for dissolving the samples was added in the control group. After 48 h of culture, each pore was added 20 μl MTT (5 mg/ml). The cells were cultured at 37° C. for 4 h. After the supernatant was carefully removed, 100 μl DMSO was added in each pore. The plate was agitated for about 10 minutes such that the precipitates were dissolved. After that, OD value was identified with a Microplate Reader at the wavelength of 490 nm. The survival rate of the cells at various concentrations was calculated according to the following formula:
(§4) Survival rate %=average OD value of the sample group/average OD value of the control group×100%
(§5) Plots of log survival rate of the cells vs. concentration of the medicament were constructed, and the IC50 value of each sample was calculated according to graphing methods.

BGC-823 = assay: In vitro cytotoxicity, IC50 by MTT method, BGC-823; format: cell-based
Protocol: as §1, §2, §3, §4, §5

Hela = assay: In vitro cytotoxicity, IC50 by MTT method, Hela; format: cell-based
Protocol: as §1, §2, §3, §4, §5

NIH3T3 = assay: In vitro cytotoxicity, IC50 by MTT method, NIH3T3; format: cell-based
Protocol: as §1, §2, §3, §4, §5

Lovo = assay: In vitro cytotoxicity, IC50 by MTT method, Lovo; format: cell-based
Protocol: as §1, §2, §3, §4, §5

HepG2 = assay: In vitro cytotoxicity, IC50 by MTT method, HepG2; format: cell-based, human
Protocol: as §1, §2, §3, §4, §5

PLA-801 = assay: In vitro cytotoxicity, IC50 by MTT method, PLA-801; format: cell-based
Protocol: as §1, §2, §3, §4, §5

S180 sarcoma = conditions: S180 sarcoma, Dosage 30 (mg/ml), ip × 7qd, listed as CTX
Lewis lung cancer = conditions: Lewis lung cancer, listed as CTX;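 note: mice implanted subcutaneously in the axilla with Lewis lung tumor cells, treated starting the following day, killed roughly three weeks after implantation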
[1] = Bel7402 cell strain, read-out: IC50 Bel7402
[2] = BGC823 cell strain, read-out: IC50 BGC823
[3] = Hela cell strain, read-out: IC50 Hela
[4] = NIH3T3 cell strain, read-out: IC50 NIH3T3
[5] = Lovo cell strain, read-out: IC50 Lovo
[6] = HepG2 cell strain, read-out: IC50 HepG2
[7] = PLA-801 cell strain, read-out: IC50 PLA-801
[8] = Homo sapiens, Bel-7402, BeI7402, MTT, read-out: IC50
[9] = Homo sapiens, BGC-823, BGC823, MTT, read-out: IC50
[10] = Homo sapiens, Hela, MTT, read-out: IC50
[11] = Mus musculus, NIH3T3, MTT, read-out: IC50
[12] = Homo sapiens, Lovo, MTT, read-out: IC50
[13] = Homo sapiens, HepG2, MTT, read-out: IC50

Compound: CCn1c2ccccc2c2cc(C(=O)NN)ncc21 [Compound 51, 3-carbohydrazine 9-ethyl-β-carboline]
- IC50 (Bel-7402; [1]): 370 µM
- IC50 (BGC-823; [2]): 110 µM
- IC50 (Hela; [3]): 240 µM
- IC50 (NIH3T3; [4]): 510 µM
- IC50 (Lovo; [5]): 190 µM
- IC50 (HepG2; [6]): 260 µM
- IC50 (PLA-801; [7]): 510 µM

Compound: CCOC(=O)c1cc2c3ccccc3n(Cc3c(F)c(F)c(F)c(F)c3F)c2cn1 [Compound 46, ethyl 9-(2′,3′,4′,5′,6′-pentafluoro)benzyl-β-carboline-3-carboxylate]
- IC50 (Bel-7402; [1]): 10 µM
- IC50 (BGC-823; [2]): 50 µM
- IC50 (Hela; [3]): 980 µM
- IC50 (NIH3T3; [4]): 60 µM
- IC50 (Lovo; [5]): 40 µM
- IC50 (HepG2; [6]): 120 µM
- IC50 (PLA-801; [7]): 50 µM

Compound: O=P1(N(CCCl)CCCl)NCCCO1 (stereo not drawn) [cyclophosphamide, reference compound]
- Body weight of the animals, beginning, First time (S180 sarcoma; first time): 19.4 g and 18.7 g
- Body weight of the animals, end, First time (S180 sarcoma; first time): 20.9 g and 22.3 g
- Weight of the tumor X ± SD, First time (S180 sarcoma; first time): 0.33 ± 0.14 g and 0.33 ± 0.12 g
- Body weight of the animals, beginning, Second time (S180 sarcoma; second time): 19.8 g and 20.3 g
- Body weight of the animals, end, Second time (S180 sarcoma; second time): 23.2 g and 20.9 g
- Body weight of the animals, end, First time (Lewis lung cancer; Dosage 30 (mg/ml), Iv × 7qd, first time): 21.3 g and 20.2 g
- Body weight of the animals, end, Second time (Lewis lung cancer; Dosage 30 (mg/ml), Iv × 7qd, second time): 21.3 g and 21.0 g
- Body weight of the animals, beginning, First time (Lewis lung cancer; Dosage 30, Iv × 7qd, first time): 20.1 g and 18.8 g
- Body weight of the animals, beginning, Second time (Lewis lung cancer; Dosage 30, Iv × 7qd, second time): 18.9 g and 19.8 g

Compound: Nc1cc2c(cn1)[nH]c1ccccc12 [Compound 21, 3-amino-β-carboline]
- IC50 (Bel-7402; [8]): 1570 µM
- IC50 (BGC-823; [9]): 860 µM
- IC50 (Hela; [10]): 310 µM
- IC50 (NIH3T3; [11]): 290 µM
- IC50 (Lovo; [12]): 240 µM
- IC50 (HepG2; [13]): 340 µM
- IC50 (PLA-801; PLA-801, MTT, read-out: IC50): 570 µM

Compound: 2,9-diethyl-β-carbolinium bromate [Compound 88]
- IC50 (Bel-7402; [1]): 1310 µM
- IC50 (BGC-823; [2]): 1310 µM
- IC50 (Hela; [3]): 860 µM
- IC50 (NIH3T3; [4]): 630 µM
- IC50 (Lovo; [5]): 2150 µM
- IC50 (HepG2; [6]): 430 µM
- IC50 (PLA-801; [7]): 1200 µM

Compound: CCOC(=O)c1cc2c3ccccc3n(Cc3ccccc3)c2c[n+]1Cc1ccccc1.[O-][I+2]([O-])[O-] [Compound 85, 2,9-dibenzyl-3-ethoxycarbonyl-β-carbolinium iodate]
- IC50 (Bel-7402; [1]): 40 µM
- IC50 (BGC-823; [2]): 40 µM
- IC50 (Hela; [3]): 30 µM
- IC50 (NIH3T3; [4]): 20 µM
- IC50 (Lovo; [5]): 30 µM
- IC50 (HepG2; [6]): 20 µM
- IC50 (PLA-801; [7]): 30 µM

Compound: CCCc1nc(C(=O)O)cc2c3ccccc3n(CCCc3ccccc3)c12 [Compound 75, 9-phenylpropyl-1-propyl-β-carboline-3-carboxylic acid]
- IC50 (Bel-7402; Homo sapiens, Bel-7402, Bel7402 cell strain, read-out: IC50 Bel7402): 200 µM
- IC50 (BGC-823; Homo sapiens, BGC-823, BGC823 cell strain, read-out: IC50 BGC823): 240 µM
- IC50 (Hela; Homo sapiens, Hela cell strain, read-out: IC50 Hela): 140 µM
- IC50 (NIH3T3; Mus musculus, NIH3T3 cell strain, read-out: IC50 NIH3T3): 110 µM
- IC50 (Lovo; Homo sapiens, Lovo cell strain, read-out: IC50 Lovo): 80 µM
- IC50 (HepG2; Homo sapiens, HepG2 cell strain, read-out: IC50 HepG2): 130 µM
- IC50 (PLA-801; [7]): 230 µM

Compound: CCCCOC(=O)c1cc2c(cn1)[nH]c1ccccc12 [Compound 18, butyl β-carboline-3-carboxylate]
- IC50 (Bel-7402; [8]): 310 µM
- IC50 (BGC-823; [9]): 390 µM
- IC50 (Hela; [10]): 290 µM
- IC50 (NIH3T3; [11]): 150 µM
- IC50 (Lovo; [12]): 100 µM
- IC50 (HepG2; [13]): 270 µM
- IC50 (PLA-801; PLA-801, MTT, read-out: IC50): 680 µM

Compound: CCOC(=O)c1cc2c3ccccc3n(CC(=O)c3ccccc3)c2cn1 [Compound 47, ethyl 9-acetophenone-β-carboline-3-carboxylate]
- IC50 (Bel-7402; [1]): 1020 µM
- IC50 (BGC-823; [2]): > 3000 µM
- IC50 (Hela; [3]): > 3000 µM
- IC50 (NIH3T3; [4]): > 3000 µM
- IC50 (Lovo; [5]): > 3000 µM
- IC50 (HepG2; [6]): > 3000 µM
- IC50 (PLA-801; [7]): > 3000 µM

Compound: COc1ccc2c3ccnc(C)c3n(CCCc3ccccc3)c2c1 [Compound 8, 9-phenylpropyl-7-methoxy-1-methyl-β-carboline]
- IC50 (Bel-7402; [8]): 40 µM
- IC50 (BGC-823; [9]): 50 µM
- IC50 (Hela; [10]): 20 µM
- IC50 (NIH3T3; [11]): 20 µM
- IC50 (Lovo; [12]): 30 µM
- IC50 (HepG2; [13]): 40 µM
- IC50 (PLA-801; PLA-801, MTT, read-out: IC50): 50 µM

Compound: 2,9-dibenzyl-β-carbolinium bromate [Compound 89]
- IC50 (Bel-7402; [1]): 70 µM
- IC50 (BGC-823; [2]): 60 µM
- IC50 (Hela; [3]): 20 µM
- IC50 (NIH3T3; [4]): 30 µM
- IC50 (Lovo; [5]): 30 µM
- IC50 (HepG2; [6]): 30 µM
- IC50 (PLA-801; [7]): 100 µM

Compound: NNC(=O)c1cc2c3ccccc3n(Cc3ccccc3)c2cn1 [Compound 52, 3-carbohydrazide-9-benzyl-β-carboline]
- IC50 (Bel-7402; [1]): 60 µM
- IC50 (BGC-823; [2]): 270 µM
- IC50 (Hela; [3]): 250 µM
- IC50 (NIH3T3; [4]): 220 µM
- IC50 (Lovo; [5]): 250 µM
- IC50 (HepG2; [6]): 140 µM
- IC50 (PLA-801; [7]): 520 µM

Compound: CCOC(=O)c1cc2c3ccccc3n(CC(=O)c3ccccc3)c2c(C)n1 [Compound 61, ethyl 9-acetophenone-1-methyl-β-carboline-3-carboxylate]
- IC50 (Bel-7402; [1]): 460 µM
- IC50 (BGC-823; [2]): 90 µM
- IC50 (Hela; [3]): 60 µM
- IC50 (NIH3T3; [4]): 90 µM
- IC50 (Lovo; [5]): 50 µM
- IC50 (HepG2; [6]): 70 µM
- IC50 (PLA-801; [7]): 160 µM

Compound: NNC(=O)c1cc2c(cn1)[nH]c1ccccc12 [Compound 20, β-carboline-3-carbohydrazine]
- IC50 (Bel-7402; BeI7402, MTT, read-out: IC50): 1430 µM
- IC50 (BGC-823; BGC823, MTT, read-out: IC50): 740 µM
- IC50 (Hela; Hela, MTT, read-out: IC50): 400 µM
- IC50 (NIH3T3; NIH3T3, MTT, read-out: IC50): 320 µM
- IC50 (Lovo; Lovo, MTT, read-out: IC50): 310 µM
- IC50 (HepG2; HepG2, MTT, read-out: IC50): 360 µM
- IC50 (PLA-801; PLA-801, MTT, read-out: IC50): 740 µM

Compound: COC(=O)c1cc2c(cn1)[nH]c1ccccc12 [Compound 9, methyl β-carboline-3-carboxylate]
- IC50 (Bel-7402; Homo sapiens, Bel-7402): 300 µM
- IC50 (BGC-823; Homo sapiens, BGC-823): 290 µM
- IC50 (Hela; Homo sapiens, HeLa): 100 µM
- IC50 (NIH3T3; Mus musculus, NIH3T3): 200 µM
- IC50 (Lovo; Homo sapiens, LoVo): 170 µM
- IC50 (HepG2; Homo sapiens, HepG2): 2510 µM
- IC50 (PLA-801): 310 µM

Compound: 2,9-dimethyl-β-carbolinium bromate [Compound 87]
- IC50 (Bel-7402; [1]): 370 µM
- IC50 (BGC-823; [2]): 260 µM
- IC50 (Hela; [3]): 70 µM
- IC50 (NIH3T3; [4]): 380 µM
- IC50 (Lovo; [5]): 1820 µM
- IC50 (HepG2; [6]): 200 µM
- IC50 (PLA-801; [7]): 280 µM
